Measured values taken from ChEMBL document CHEMBL1201862, “PubChem BioAssay data set” (2004).
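Grown in 96-well plates, cells were treated for 48 hours with each compound at five concentrations. Insufficient inhibition: endpoint recorded as highest concentration tested. GI50 = concentration required for 50% inhibition of growth.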 Activity calls are given as the source filed them. Rule as the data show it: active = GI50 up to about 1.1 µM and inactive = higher.

Key:
Test in all cases: NCI tumour cell line growth inhibition, 48 h
[1] = tested on: 786-0
[2] = tested on: A498
[3] = tested on: A549
[4] = tested on: ACHN
[5] = tested on: BT-549
[6] = tested on: CAKI-1
[7] = tested on: CCRF-CEM
[8] = tested on: COLO 205
[9] = tested on: DU-145
[10] = tested on: EKVX
[11] = tested on: HCT-116
[12] = tested on: HCT-15
[13] = tested on: HL-60
[14] = tested on: HOP-62
[15] = tested on: HOP-92
[16] = tested on: HT-29
[17] = tested on: Hs-578T
[18] = tested on: IGROV-1
[19] = tested on: K562
[20] = tested on: KM12
[21] = tested on: LOX IMVI
[22] = tested on: M14
[23] = tested on: MCF7
[24] = tested on: MDA-MB-231
[25] = tested on: MDA-MB-435
[26] = tested on: MDA-N
[27] = tested on: MOLT-4
[28] = tested on: Malme-3M
[29] = tested on: NCI-H226
[30] = tested on: NCI-H23
[31] = tested on: NCI-H460
[32] = tested on: NCI-H522
[33] = tested on: NCI/ADR-RES
[34] = tested on: OVCAR-3
[35] = tested on: OVCAR-4
[36] = tested on: OVCAR-5
[37] = tested on: OVCAR-8
[38] = tested on: PC-3
[39] = tested on: RPMI-8226
[40] = tested on: RXF 393
[41] = tested on: SF-268
[42] = tested on: SF-295
[43] = tested on: SF-539
[44] = tested on: SK-MEL-28
[45] = tested on: SK-MEL-2
[46] = tested on: SK-MEL-5
[47] = tested on: SK-OV-3
[48] = tested on: SN12C
[49] = tested on: SNB-19
[50] = tested on: SNB-75
[51] = tested on: SR
[52] = tested on: SW-620
[53] = tested on: T47D
[54] = tested on: TK-10
[55] = tested on: U-251
[56] = tested on: UACC-257
[57] = tested on: UACC-62
[58] = tested on: UO-31

In the case of C[N+](C)(C)CC(=O)N/N=C/c1ccncc1, the GI50 [1] is reported as > 100 µM (inactive), the GI50 [2] is reported as > 100 µM (inactive) and the GI50 [3] is reported as > 100 µM (inactive). For the same molecule, the GI50 [4] was > 100 µM (inactive), the GI50 [5] was > 100 µM (inactive) and the GI50 [6] was > 100 µM (inactive). The GI50 [7] was > 100 µM (inactive), the GI50 [8] was > 100 µM (inactive) and the GI50 [9] was > 100 µM (inactive). For the same molecule, the GI50 [10] was > 100 µM (inactive), the GI50 [11] was > 100 µM (inactive) and the GI50 [12] was greater than 100 µM. The GI50 [13] was 65.6 µM (inactive), the GI50 [14] was > 100 µM (inactive) and the GI50 [15] was > 100 µM (inactive). For the same molecule, the GI50 [16] was > 100 µM (inactive), the GI50 [17] was > 100 µM (inactive) and the GI50 [18] was > 100 µM (inactive). The GI50 [19] was > 100 µM (inactive), the GI50 [20] was > 100 µM (inactive) and the GI50 [21] was > 100 µM (inactive). For the same molecule, the GI50 [22] was > 100 µM (inactive), the GI50 [23] was > 100 µM (inactive) and the GI50 [24] was > 100 µM (inactive). For the same molecule, the GI50 [25] was > 100 µM (inactive), the GI50 [26] was > 100 µM (inactive) and the GI50 [27] was > 100 µM (inactive). The GI50 [28] was > 100 µM (inactive), the GI50 [29] was > 100 µM (inactive) and the GI50 [30] was > 100 µM (inactive). For the same molecule, the GI50 [31] was > 100 µM (inactive), the GI50 [32] was > 100 µM (inactive) and the GI50 [33] was > 100 µM (inactive). The GI50 [34] was > 100 µM (inactive), the GI50 [35] was > 100 µM (inactive) and the GI50 [36] was > 100 µM (inactive). For the same molecule, the GI50 [37] was > 100 µM (inactive), the GI50 [38] was > 100 µM (inactive) and the GI50 [39] was > 100 µM (inactive). The GI50 [40] was > 100 µM (inactive), the GI50 [41] was > 100 µM (inactive) and the GI50 [42] was > 100 µM (inactive). For the same molecule, the GI50 [43] was > 100 µM (inactive), the GI50 [44] was > 100 µM (inactive) and the GI50 [45] was > 100 µM (inactive). For the same molecule, the GI50 [46] was > 100 µM (inactive), the GI50 [47] was > 100 µM (inactive) and the GI50 [48] was > 100 µM (inactive). For the same molecule, the GI50 [49] was > 100 µM (inactive), the GI50 [50] was > 100 µM (inactive) and the GI50 [51] was > 100 µM (inactive). The GI50 [52] was > 100 µM (inactive), the GI50 [53] was > 100 µM (inactive) and the GI50 [54] was > 100 µM (inactive). For the same molecule, the GI50 [55] was > 100 µM (inactive), the GI50 [56] was > 100 µM (inactive) and the GI50 [57] was > 100 µM (inactive). For the same molecule, the GI50 [58] was > 100 µM (inactive).
For NC1=NC2(COC(c3ccccc3)(c3ccccc3)c3ccccc3)OC(COC(c3ccccc3)(c3ccccc3)c3ccccc3)C(O)C2O1 (stereo unspecified), the GI50 [1] was > 100 µM (inactive), the GI50 [2] was > 100 µM (inactive) and the GI50 [3] was 25.1 µM (inactive). For the same molecule, the GI50 [4] was 88.3 µM (inactive), the GI50 [5] was 41.3 µM (inactive) and the GI50 [6] was > 100 µM (inactive). For the same molecule, the GI50 [7] was 21.3 µM (inactive), the GI50 [8] was 67.1 µM (inactive) and the GI50 [9] was > 100 µM (inactive). For the same molecule, the GI50 [10] was 16.4 µM (inactive), the GI50 [11] was 38.3 µM (inactive) and the GI50 [12] was greater than 100 µM. For the same molecule, the GI50 [13] was 8.59 µM (inactive), the GI50 [14] was > 100 µM (inactive) and the GI50 [15] was 15.2 µM (inactive). The GI50 [16] was 65 µM (inactive), the GI50 [17] was 0.258 µM (active) and the GI50 [18] was 21.8 µM (inactive). For the same molecule, the GI50 [19] was 21.8 µM (inactive), the GI50 [20] was 21.6 µM (inactive) and the GI50 [21] was > 100 µM (inactive). For the same molecule, the GI50 [22] was > 100 µM (inactive), the GI50 [23] was > 100 µM (inactive) and the GI50 [24] was 67.1 µM (inactive). The GI50 [25] was 65.8 µM (inactive), the GI50 [26] was 85.1 µM (inactive) and the GI50 [27] was 13.2 µM (inactive). For the same molecule, the GI50 [28] was 18.4 µM (inactive), the GI50 [29] was 24.2 µM (inactive) and the GI50 [30] was 23.1 µM (inactive). For the same molecule, the GI50 [32] was 52.5 µM (inactive), the GI50 [33] was 21.1 µM (inactive) and the GI50 [34] was > 100 µM (inactive). For the same molecule, the GI50 [36] was 81.7 µM (inactive), the GI50 [37] was 5.98 µM (inactive) and the GI50 [38] was 11.2 µM (inactive). For the same molecule, the GI50 [39] was 16.6 µM (inactive), the GI50 [40] was 66.5 µM (inactive) and the GI50 [42] was 46.5 µM (inactive). The GI50 [43] was 71.6 µM (inactive), the GI50 [44] was > 100 µM (inactive) and the GI50 [45] was 5.77 µM (inactive). The GI50 [46] was 26.1 µM (inactive), the GI50 [47] was > 100 µM (inactive) and the GI50 [48] was > 100 µM (inactive). For the same molecule, the GI50 [49] was 23 µM (inactive), the GI50 [50] was < 0.01 µM (active) and the GI50 [51] was 32.9 µM (inactive). For the same molecule, the GI50 [52] was > 100 µM (inactive), the GI50 [53] was 53.1 µM (inactive) and the GI50 [54] was 18.9 µM (inactive). For the same molecule, the GI50 [55] was > 100 µM (inactive), the GI50 [56] was 51.2 µM (inactive) and the GI50 [57] was 27.6 µM (inactive). The GI50 [58] was 13.4 µM (inactive).
For CCOC(=O)C1(CC(=O)O)CCCC1=O (stereo unspecified), the GI50 [1] was > 100 µM (inactive), the GI50 [2] was > 100 µM (inactive) and the GI50 [3] was > 100 µM (inactive). For the same molecule, the GI50 [4] was > 100 µM (inactive), the GI50 [5] was > 100 µM (inactive) and the GI50 [6] was > 100 µM (inactive). For the same molecule, the GI50 [7] was > 100 µM (inactive), the GI50 [8] was > 100 µM (inactive) and the GI50 [9] was > 100 µM (inactive). For the same molecule, the GI50 [10] was > 100 µM (inactive), the GI50 [11] was > 100 µM (inactive) and the GI50 [12] was greater than 100 µM. For the same molecule, the GI50 [13] was > 100 µM (inactive), the GI50 [14] was > 100 µM (inactive) and the GI50 [15] was > 100 µM (inactive). The GI50 [16] was > 100 µM (inactive), the GI50 [17] was > 100 µM (inactive) and the GI50 [18] was > 100 µM (inactive). The GI50 [19] was > 100 µM (inactive), the GI50 [20] was > 100 µM (inactive) and the GI50 [21] was > 100 µM (inactive). For the same molecule, the GI50 [22] was > 100 µM (inactive), the GI50 [23] was > 100 µM (inactive) and the GI50 [24] was > 100 µM (inactive). For the same molecule, the GI50 [25] was > 100 µM (inactive), the GI50 [26] was > 100 µM (inactive) and the GI50 [27] was 0.475 µM (active). For the same molecule, the GI50 [28] was > 100 µM (inactive), the GI50 [29] was > 100 µM (inactive) and the GI50 [30] was > 100 µM (inactive). The GI50 [31] was > 100 µM (inactive), the GI50 [32] was > 100 µM (inactive) and the GI50 [33] was > 100 µM (inactive). The GI50 [34] was > 100 µM (inactive), the GI50 [35] was > 100 µM (inactive) and the GI50 [36] was > 100 µM (inactive). For the same molecule, the GI50 [37] was > 100 µM (inactive), the GI50 [38] was > 100 µM (inactive) and the GI50 [39] was > 100 µM (inactive). For the same molecule, the GI50 [40] was > 100 µM (inactive), the GI50 [41] was > 100 µM (inactive) and the GI50 [42] was > 100 µM (inactive). The GI50 [43] was > 100 µM (inactive), the GI50 [44] was > 100 µM (inactive) and the GI50 [45] was > 100 µM (inactive). For the same molecule, the GI50 [46] was > 100 µM (inactive), the GI50 [47] was > 100 µM (inactive) and the GI50 [48] was > 100 µM (inactive). For the same molecule, the GI50 [49] was > 100 µM (inactive), the GI50 [50] was > 100 µM (inactive) and the GI50 [51] was > 100 µM (inactive). For the same molecule, the GI50 [52] was > 100 µM (inactive), the GI50 [53] was > 100 µM (inactive) and the GI50 [54] was > 100 µM (inactive). The GI50 [55] was > 100 µM (inactive), the GI50 [56] was > 100 µM (inactive) and the GI50 [57] was > 100 µM (inactive). The GI50 [58] was > 100 µM (inactive).
